Data from patent US4390547A, “2,2-Dimethyl-3-(substituted ethyl)cyclopropane carboxylate pesticidal compositions and methods” (priority 1981, dated 1983).
Like-named read-outs stand apart in the source and are kept apart here. One block for each compound: values may come before it.

Columns and labels:
[1] = tested on: guppies; assay: Fish toxicity test (Test Example 4); type: in vivo; conditions: concentration killing 50% of female guppies during 48 hours, 20° C.; [Mixture] = cis/trans 50/50
Method: The mixture was stirred well to prepare a test water. Ten female guppies from 3 to 4 months of age were released into the test water and maintained at 20° C. The concentration of the test compound at which 50% of the guppies were killed during the ensuring 48 hours was determined. [This concentration is referred to as TLm (medium tolerance limit, ppm)].
A rank corresponds to TLm of not less than 10 ppm.
B rank corresponds to TLm of 0.5-10 ppm.
C rank corresponds to TLm of not more than 0.5 ppm.

[2] = Light stability test (Test Example 3); type: physicochemical; conditions: glass plate, uv light
Method: Into 2.0 ml of acetone were dissolved 80 mg of each test compound. A 5 μl portion of the solution was taken and spread on a glass plate (Micro Standard Cover Glass, 18 m/m No. 1, 200 pcs, Matsunami Glass Ind., Ltd.) and the acetone was evaporated. The specimen was exposed to ultraviolet light from a fluorescent lamp (Tokyo Shibaura Electric Co., Ltd., FL20BL, glow-type, 100 V, 24.5 W, wavelength=3600 A) which was fixed just above the specimen at a distance of 11 cm at a temperature of 31°-35° C. for a predetermined exposure time. The test liquid was washed away with 1.0 ml of methanol containing 0.04% of dioctyl phthalate as an internal reference and high-speed liquid chromatography was carried out on the washings to determine the residual amount of the test compound.

[3] = tested on: housefly (Musca domestica); assay: Mortality test against houseflies by topical application (Test Example 1); type: in vivo; conditions: 24 h
Method: Each test compound was accurately weighed and a 1% solution and an 0.1% solution of the sample in acetone were prepared. A 1 μl portion of either of the above solutions was micropipetted onto the thoracic dorsal part of each female adult housefly (Musca domestica) under ether anaesthesia and the fly was released in a high-walled dish together with feed. The dish was covered with a metal-wire net and maintained at 25° C. After 24 hours, the test flies were inspected for deaths and the mortality (%) was calculated. Thirty test flies were used per concentration group.

[4] = tested on: houseflies (Musca domestica); assay: Mortality test against houseflies by the settling mist method (Utility Examples 2 and 3); type: in vivo; conditions: cis/trans 50/50, 24 hours
Method: 0.2 part of each of Compounds (1) to (38) was prepared and 0.8 part of piperonyl butoxide was added to each of them. To this mixture was added a sufficient amount of kerosene to make 100 parts, followed by stirring. By this procedure there was obtained an oil preparation of each Compound.
To 0.1 part of each of Compounds (1) to (38) was added 0.08 part of permethrin, followed by the addition of a sufficient amount of kerosene to make 100 parts. The mixture was stirred to obtain an oil preparation of each compound.
(§1) By the settling mist method, a mortality test against houseflies, (Musca domestica) was carried out using the oil preparations obtained according to Formulation Example 1 from Compounds (1), (5), (7), (9), (11) and (15) [Each compound is a mixture of cis- and trans-isomer in a ratio 50/50]. After 24 hours, the flies were examined for deaths. The mortality (%) was not less than 90% for each of Compounds (1), (5), (7), (9), (11) and (15).
as §1, with “against houseflies” for “against houseflies, (Musca domestica)”, “obtained in” for “obtained according to”, “Example 3” for “Example 1”, “(9), (11), (12), (15), (17)” for “(9), (11)”, “and (28)” for “and (15)”, “and (28).” for “and (15).”

[5] = tested on: green rice leafhoppers; assay: Mortality of green rice leafhoppers on sprayed rice seedlings (Utility Example 1); conditions: green rice leafhopper, in vivo, 24 h
Method: To 30 parts of each of Compounds (1) to (38) were added 50 parts of xylene and 20 parts of Sorpol SM-200 (a surfactant, trademark of Toho Chemical Co., Ltd.). The mixture was stirred well and dissolved to obtain a 30% emulsifiable concentrate.
The emulsifiable concentrate prepared from Compounds (7), (11), (12), (15), (17), (21) and (22) [Each compound is a mixture of cis- and trans-isomer in a ratio of 50/50] in Formulation Example 5 were each diluted 300-fold with water. Then, each of the dilutions was sprayed over rice seedlings 25 days after sowing at the rate of 10 ml/pot. The pot was covered with a wire net and 15 green rice leafhoppers were released under the net. After 24 hours, the leafhoppers were examined for deaths. The mortality (%) was not less than 90% for each of Compounds (7), (11), (12), (15), (17), (21) and (22).

[6] = oil preparation of Formulation Example 1 (0.2 part compound + 0.8 part piperonyl butoxide)
[7] = oil preparation of Formulation Example 3 (0.1 part compound + 0.08 part permethrin)
[8] = exposure time 3.5 hours, ultraviolet light 3600 A, 31°-35° C., [Mixture] = cis/trans 50/50, read-out: Residue (%)
[9] = exposure time 3 days, ultraviolet light 3600 A, 31°-35° C., [Mixture] = cis/trans 50/50, read-out: Residue (%)

Compound: CC1(C)C(C=C(Cl)Cl)C1C(=O)OCc1cccc(Oc2ccccc2)c1 (mixture of isomers) [Permethrin, 3-phenoxybenzyl(+)-cis,trans-2,2-dimethyl-3-(2,2-dichlorovinyl)cyclopropanecarboxylate, reference compound]
- TLm (medium tolerance limit) [1]: C (C rank corresponds to TLm of not more than 0.5 ppm.)

- remaining at 3.5 h [2]: 97%
- remaining at 72 h [2]: 91%
- remaining at 120 h [2]: 85%
Compound: CC1(C)[C@H](C(=O)OCc2cccc(Oc3ccccc3)c2)[C@@H]1CC(Cl)(Cl)Cl (relative stereo) [(1) [Cis-isomer], 3-Phenoxybenzyl 2,2-dimethyl-3-(2,2,2-trichloroethyl)cyclopropanecarboxylate]

Compound: CC1(C)[C@H](CC(Cl)(Cl)Cl)[C@H]1C(=O)OC(C#N)c1cccc(Oc2ccccc2)c1 (relative stereo) [(7) [Trans-isomer], 3-Phenoxy-α-cyanobenzyl 2,2-dimethyl-3-(2,2,2-trichloroethyl)cyclopropanecarboxylate]
- mortality at 1 µg/fly [3]: 96.7%
- mortality at 10 µg/fly [3]: 100%

Compound: C#CC(OC(=O)[C@@H]1[C@H](CC(C)(Cl)Cl)C1(C)C)c1cccc(Oc2ccccc2)c1 (relative stereo) [(13) [Cis-isomer], 3-Phenoxy-α-ethynylbenzyl 2,2-dimethyl-3-(2,2-dichloropropyl)cyclopropanecarboxylate]
- TLm (medium tolerance limit) [1]: A (A rank corresponds to TLm of not less than 10 ppm.)
- remaining at 3.5 h [2]: 100%
- remaining at 72 h [2]: 88%
- remaining at 120 h [2]: 73%

Compound: CC1(C)C(CC(Cl)(Cl)Cl)C1C(=O)OCc1cccc(Oc2ccccc2)c1 (centres unmarked) [(1), 3-Phenoxybenzyl 2,2-dimethyl-3-(2,2,2-trichloroethyl)cyclopropanecarboxylate]
- mortality (%) [4, 6]: not less than 90%
- mortality (%) [4, 7]: not less than 90%

- remaining at 3.5 h [2]: 100%
- remaining at 72 h [2]: 84%
- remaining at 120 h [2]: 75%
Compound: CC1(C)C(CC(Cl)(Cl)Cl)C1C(=O)OC(C#N)c1cccc(Oc2ccccc2)c1 (stereo not drawn) [(7) [Mixture], 3-Phenoxy-α-cyanobenzyl 2,2-dimethyl-3-(2,2,2-trichloroethyl)cyclopropanecarboxylate]

- remaining at 3.5 h [2]: 100%
- remaining at 72 h [2]: 71%
- remaining at 120 h [2]: 65%
Compound: C#CC(OC(=O)C1C(CC(Cl)(Cl)Cl)C1(C)C)c1cccc(Oc2ccccc2)c1 (stereo not drawn) [(11) [Mixture], 3-Phenoxy-α-ethynylbenzyl 2,2-dimethyl-3-(2,2,2-trichloroethyl)cyclopropanecarboxylate]

- remaining at 3.5 h [2]: 100%
- remaining at 72 h [2]: 93%
- remaining at 120 h [2]: 96%
Compound: CC1(C)C(CC(Cl)(Cl)Cl)C1C(=O)OC(C#N)c1cccc(Oc2ccc(Cl)cc2)c1 (stereo not drawn) [(15) [Mixture], 3-(4-Chlorophenoxy)-α-cyanobenzyl 2,2-dimethyl-3-(2,2,2-trichloroethyl)cyclopropanecarboxylate]

Compound: CC1(C)C(CC(Cl)(Cl)Cl)C1C(=O)OC(C#N)c1cccc(Oc2ccc(Br)cc2)c1 (stereo not drawn) [(17), 3-(4-Bromophenoxy)-α-cyanobenzyl 2,2-dimethyl-3-(2,2,2-trichloroethyl)cyclopropanecarboxylate]
- mortality (%) [4, 7]: not less than 90%

- remaining at 3.5 h [2]: 100%
- remaining at 72 h [2]: 78%
- remaining at 120 h [2]: 56%
Compound: C#CC(OC(=O)C1C(CC(Cl)(Cl)Cl)C1(C)C)c1cccc(Oc2ccc(Cl)cc2)c1 (stereo not drawn) [(21) [Mixture], 3-(4-Chlorophenoxy)-α-ethynylbenzyl 2,2-dimethyl-3-(2,2,2-trichloroethyl)cyclopropanecarboxylate]

Compound: C#CC(OC(=O)C1C(CC(Cl)(Cl)Cl)C1(C)C)c1cccc(Oc2ccc(Cl)cc2)c1 (stereo not drawn) [(21), 3-(4-Chlorophenoxy)-α-ethynylbenzyl 2,2-dimethyl-3-(2,2,2-trichloroethyl)cyclopropanecarboxylate]
- mortality (%) [5]: not less than 90%

Compound: CC1(C)[C@H](C(=O)OC(C(N)=S)c2cccc(Oc3ccccc3)c2)[C@@H]1CC(Cl)(Cl)Cl (stereo partly drawn) [(27) [Cis-isomer], 3-Phenoxy-α-thiocarbamoylbenzyl 2,2-dimethyl-3-(2,2,2-trichloroethyl)cyclopropanecarboxylate]
- TLm (medium tolerance limit) [1]: A (A rank corresponds to TLm of not less than 10 ppm.)

Compound: CC1(C)C(CC(Cl)(Cl)Cl)C1C(=O)OCc1coc(Cc2ccccc2)c1 (centres unmarked) [(28) [Mixture], 5-Benzyl-3-furylmethyl 2,2-dimethyl-3-(2,2,2-trichloroethyl)cyclopropanecarboxylate]
- remaining at 3.5 h [2]: 5%
- remaining at 72 h [2]: 0%

Compound: CC1(C)C(CC(Cl)(Cl)Cl)C1C(=O)OCc1coc(Cc2ccccc2)c1 (centres unmarked) [(28), 5-Benzyl-3-furylmethyl 2,2-dimethyl-3-(2,2,2-trichloroethyl)cyclopropanecarboxylate]
- mortality (%) [4, 7]: not less than 90%

Compound: CC1(C)C(CC(Cl)(Cl)Cl)C1C(=O)OC(C#N)c1cccc(OC=C(Cl)Cl)c1 (stereo not drawn) [(34) [Mixture], 3-(2,2-dichlorovinyloxy)-α-cyanobenzyl 2,2-dimethyl-3-(2,2,2-trichloroethyl)cyclopropanecarboxylate]
- remaining at 3.5 h [2, 8]: 100%
- remaining at 72 h [2, 9]: 88%
- remaining at 120 h ([2]; exposure time 5 days, ultraviolet light 3600 A, 31°-35° C., [Mixture] = cis/trans 50/50, read-out: Residue (%)): 44%

- remaining at 3.5 h [2]: 16%
- remaining at 72 h [2]: 0%
Compound: CC1(C)C(CC(Cl)(Cl)Cl)C1C(=O)OCN1C(=O)C2=C(CCCC2)C1=O (centres unmarked) [(37) [Mixture], 3,4,5,6-Tetrahydrophthalimidomethyl 2,2-dimethyl-3-(2,2,2-trichloroethyl)cyclopropanecarboxylate]

- remaining at 3.5 h [2]: 21%
- remaining at 72 h [2]: 0%
Compound: C=CCC1=C(C)C(OC(=O)C2C(CC(Cl)(Cl)Cl)C2(C)C)CC1=O (centres unmarked) [(38) [Mixture], Allethronyl 2,2-dimethyl-3-(2,2,2-trichloroethyl)cyclopropanecarboxylate]

Compound: C=CCC1=C(C)C(OC(=O)C2C(C=C(C)C)C2(C)C)CC1=O (centres unmarked) [Allethrin, allethrin, reference compound]
- remaining at 3.5 h [2, 8]: 14%
- remaining at 72 h [2, 9]: 0%

Compound: CC(Cl)(Cl)CC1C(C(=O)OCc2cccc(Oc3ccccc3)c2)C1(C)C (centres unmarked) [Compound (5), 3-Phenoxybenzyl 2,2-dimethyl-3-(2,2-dichloropropyl)cyclopropanecarboxylate]
- mortality (%) [4, 6]: not less than 90%
- mortality (%) [4, 7]: not less than 90%

Compound: CC(Cl)(Cl)CC1C(C(=O)OC(C#N)c2cccc(Oc3ccccc3)c2)C1(C)C (stereo not drawn) [Compound (9), 3-Phenoxy-α-cyanobenzyl 2,2-dimethyl-3-(2,2-dichloropropyl)cyclopropanecarboxylate]
- mortality (%) [4, 6]: not less than 90%
- mortality (%) [4, 7]: not less than 90%

Compound: C#CC(OC(=O)C1C(CC(Br)(Br)Br)C1(C)C)c1cccc(Oc2ccccc2)c1 (stereo not drawn) [Compound (12), 3-Phenoxy-α-ethylnylbenzyl 2,2-dimethyl-3-(2,2,2-tribromoethyl)cyclopropanecarboxylate]
- mortality (%) [5]: not less than 90%
